Measurements as given in the NIST ThermoML archive (doi:10.1016/j.tca.2013.11.010).

Legend:
[1] = relative permittivity at various frequencies (dimensionless); details: 101.3 kPa, Liquid, Frequency=2 MHz, Parallel plate capacitor
[2] = refractive index (Na D-line) (dimensionless); details: 101.33 kPa, Liquid, Standard Abbe refractometry
[3] = for surface tension liquid-gas: Drop volume; for viscosity / speed of sound / mass density: 101.33 kPa; for viscosity / speed of sound / mass density / vapor or sublimation pressure: Liquid; for viscosity: Capillary tube (Ostwald / Ubbelohde) method; for speed of sound: Sing-around technique in a fixed-path interferometer; for mass density: Vibrating tube method; for vapor or sublimation pressure: Ebulliometric method (Recirculating still)

COC(=O)C(C)O (stereo unspecified) [methyl 2-hydroxypropanoate]
Details | mass density, [3] [kg/m3] | refractive index, [2] | relative permittivity, [1] | speed of sound, [3] [m/s] | surface tension liquid-gas, [3] [mN/m] | vapor or sublimation pressure, [3] [kPa] | viscosity, [3] [mPa·s]
278.15 K | 1109.61 | – | 18.379 | 1416.4 | 35.05 | – | 5.21
280.65 K | 1106.86 | – | 18.095 | 1407.1 | 34.8 | – | 4.706
283.15 K | 1104.11 | 1.41831 | 17.817 | 1397.6 | 34.53 | – | 4.281
285.65 K | 1101.34 | 1.41722 | 17.634 | 1387.9 | 34.25 | – | 3.916
288.15 K | 1098.57 | 1.41613 | 17.353 | 1378.2 | 34.04 | – | 3.588
290.65 K | 1095.79 | 1.41502 | 17.06 | 1368.2 | 33.73 | – | 3.299
293.15 K | 1093.01 | 1.41392 | 16.779 | 1358.4 | 33.47 | – | 3.043
295.65 K | 1090.23 | 1.41281 | 16.493 | 1348.6 | 33.14 | – | 2.819
298.15 K | 1087.43 | 1.41171 | 16.21 | 1338.8 | 32.9 | – | 2.618
300.65 K | 1084.64 | 1.41061 | 15.923 | 1329.2 | 32.6 | – | 2.438
303.15 K | 1081.83 | 1.40949 | 15.647 | 1319.5 | 32.25 | 0.692 | 2.277
305.65 K | 1079.02 | 1.40837 | 15.412 | 1309.9 | 31.95 | – | 2.132
308.15 K | 1076.2 | 1.40725 | 15.093 | 1300.4 | 31.58 | 0.967 | 2
310.65 K | 1073.38 | 1.40614 | 14.861 | 1290.9 | 31.23 | – | 1.881
313.15 K | 1070.55 | 1.40502 | 14.598 | 1281.4 | 30.87 | 1.333 | 1.772
315.65 K | 1067.71 | 1.40386 | 14.355 | 1271.9 | 30.63 | – | 1.672
318.15 K | 1064.86 | 1.40276 | 14.127 | 1262.4 | 30.34 | 1.821 | 1.58
320.65 K | 1062.01 | 1.40164 | 13.9 | 1253 | 30.08 | – | 1.499
323.15 K | 1059.15 | 1.40051 | 13.666 | 1243.5 | 29.71 | 2.399 | 1.425
325.65 K | 1056.28 | 1.39937 | 13.359 | 1234.1 | 29.38 | – | 1.345
328.15 K | 1053.4 | 1.39821 | 13.113 | 1224.6 | 29.03 | 3.173 | 1.29
330.65 K | 1050.52 | 1.3971 | 12.879 | 1215.2 | 28.83 | – | 1.231
333.15 K | 1047.63 | 1.39596 | 12.631 | 1205.7 | 28.52 | 4.139 | 1.175
335.65 K | 1044.73 | 1.39479 | 12.319 | 1196.3 | 28.22 | – | 1.136
338.15 K | 1041.83 | 1.39365 | 12.012 | 1186.9 | 27.92 | 5.319 | 1.075
343.15 K | – | – | – | – | – | 6.889 | –
348.15 K | – | – | – | – | – | 8.652 | –
353.15 K | – | – | – | – | – | 10.81 | –
358.15 K | – | – | – | – | – | 13.49 | –
363.15 K | – | – | – | – | – | 16.6 | –
368.15 K | – | – | – | – | – | 20.3 | –
373.15 K | – | – | – | – | – | 24.7 | –
378.15 K | – | – | – | – | – | 29.68 | –
383.15 K | – | – | – | – | – | 35.5 | –
388.15 K | – | – | – | – | – | 42.28 | –
393.15 K | – | – | – | – | – | 50 | –
398.15 K | – | – | – | – | – | 58.68 | –
403.15 K | – | – | – | – | – | 68.64 | –
408.15 K | – | – | – | – | – | 79.85 | –
413.15 K | – | – | – | – | – | 92.5 | –
